Assay results as given in PubChem BioAssay (NCI).
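Where inhibition never reached the appropriate level, the endpoint shown equals the highest concentration tested. Otherwise, values were interpolated linearly from a five-concentration, 48-hour dose response in 96-well plates. GI50 is the concentration that inhibits growth by half. Definition used: TGI = concentration required for complete inhibition of growth.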

Tests used:
Assay in all cases: growth of human tumour cells (NCI), 48 h
CAKI-1 renal = test system: CAKI-1 renal
MDA-MB-435 = test system: MDA-MB-435
M14 melanoma = test system: M14 melanoma
SK-MEL-28 melanoma = test system: SK-MEL-28 melanoma
HL-60(TB) leukemia = test system: HL-60(TB) leukemia
OVCAR-8 ovarian = test system: OVCAR-8 ovarian
SN12C renal = test system: SN12C renal
T-47D breast = test system: T-47D breast
HCT-15 colon = test system: HCT-15 colon
U251 CNS = test system: U251 CNS
UACC-62 melanoma = test system: UACC-62 melanoma
SF-268 CNS = test system: SF-268 CNS
MCF7 breast = test system: MCF7 breast
NCI-H226 lung = test system: NCI-H226 lung
COLO 205 colon = test system: COLO 205 colon
MALME-3M melanoma = test system: MALME-3M melanoma
OVCAR-5 ovarian = test system: OVCAR-5 ovarian
RPMI-8226 leukemia = test system: RPMI-8226 leukemia
NCI-H23 lung = test system: NCI-H23 lung
HOP-92 NSCLC = test system: HOP-92 NSCLC
NCI/ADR-RES ovarian = test system: NCI/ADR-RES ovarian
SW-620 colon = test system: SW-620 colon
DU-145 prostate = test system: DU-145 prostate
CCRF-CEM leukemia = test system: CCRF-CEM leukemia
A498 renal = test system: A498 renal
SK-MEL-2 melanoma = test system: SK-MEL-2 melanoma
SNB-75 CNS = test system: SNB-75 CNS
HOP-62 NSCLC = test system: HOP-62 NSCLC
SNB-19 CNS = test system: SNB-19 CNS
786-0 renal = test system: 786-0 renal
LOX IMVI melanoma = test system: LOX IMVI melanoma
HS 578T breast = test system: HS 578T breast
K-562 leukemia = test system: K-562 leukemia
SR leukemia = test system: SR leukemia
ACHN renal = test system: ACHN renal
TK-10 renal = test system: TK-10 renal
KM12 colon = test system: KM12 colon
HCC-2998 colon = test system: HCC-2998 colon
IGROV1 ovarian = test system: IGROV1 ovarian
PC-3 prostate = test system: PC-3 prostate
SK-MEL-5 melanoma = test system: SK-MEL-5 melanoma
EKVX NSCLC = test system: EKVX NSCLC
NCI-H460 lung = test system: NCI-H460 lung
MDA-MB-231 breast = test system: MDA-MB-231 breast
SF-295 CNS = test system: SF-295 CNS
OVCAR-3 ovarian = test system: OVCAR-3 ovarian
SF-539 CNS = test system: SF-539 CNS
A549 NSCLC = test system: A549 NSCLC
MOLT-4 leukemia = test system: MOLT-4 leukemia
HT29 colon = test system: HT29 colon
RXF 393 renal = test system: RXF 393 renal
UO-31 renal = test system: UO-31 renal
UACC-257 melanoma = test system: UACC-257 melanoma
NCI-H522 lung = test system: NCI-H522 lung
SK-OV-3 ovarian = test system: SK-OV-3 ovarian
BT-549 breast = test system: BT-549 breast
OVCAR-4 ovarian = test system: OVCAR-4 ovarian
HCT-116 colon = test system: HCT-116 colon

`CC(C)CCSC1=CC(=O)c2ccccc2C1=O` showed a GI50 (CAKI-1 renal) of 10.3 µM, a TGI (CAKI-1 renal) of 21.9 µM and a GI50 (MDA-MB-435) of 3.88 µM. It also gave a TGI (MDA-MB-435) of 13.8 µM, a GI50 (M14 melanoma) of 15.6 µM and a TGI (M14 melanoma) of 33.4 µM. For the same molecule, the GI50 (SK-MEL-28 melanoma) was 5.7 µM, the TGI (SK-MEL-28 melanoma) was 10.7 µM and the GI50 (HL-60(TB) leukemia) was 0.325 µM. The TGI (HL-60(TB) leukemia) was 0.943 µM, the GI50 (OVCAR-8 ovarian) was 4.56 µM and the TGI (OVCAR-8 ovarian) was 17.3 µM. For the same molecule, the GI50 (SN12C renal) was 12.9 µM, the TGI (SN12C renal) was 25.8 µM and the GI50 (T-47D breast) was 1.19 µM. The TGI (T-47D breast) was 3.51 µM, the GI50 (HCT-15 colon) was 6.61 µM and the TGI (HCT-15 colon) was 19.1 µM. It also gave a GI50 (U251 CNS) of 8.11 µM, a TGI (U251 CNS) of 21.5 µM and a GI50 (UACC-62 melanoma) of 4.02 µM. For the same molecule, the TGI (UACC-62 melanoma) was 14.8 µM, the GI50 (SF-268 CNS) was 6.66 µM and the TGI (SF-268 CNS) was 23.8 µM. The GI50 (MCF7 breast) was 1.42 µM, the TGI (MCF7 breast) was 3.63 µM and the GI50 (NCI-H226 lung) was 6.82 µM. It also gave a TGI (NCI-H226 lung) of 32.8 µM, a GI50 (COLO 205 colon) of 10.9 µM and a TGI (COLO 205 colon) of 22.9 µM. For the same molecule, the GI50 (MALME-3M melanoma) was 1.57 µM, the TGI (MALME-3M melanoma) was 4.24 µM and the GI50 (OVCAR-5 ovarian) was 18.1 µM. It also gave a TGI (OVCAR-5 ovarian) of 34 µM, a GI50 (RPMI-8226 leukemia) of 0.0469 µM and a TGI (RPMI-8226 leukemia) of 0.304 µM. The GI50 (NCI-H23 lung) was 14.5 µM, the TGI (NCI-H23 lung) was 34.7 µM and the GI50 (HOP-92 NSCLC) was 1.2 µM. It also gave a TGI (HOP-92 NSCLC) of 2.62 µM, a GI50 (NCI/ADR-RES ovarian) of 8.75 µM and a TGI (NCI/ADR-RES ovarian) of 40.1 µM. The GI50 (SW-620 colon) was 2.59 µM, the TGI (SW-620 colon) was 8.91 µM and the GI50 (DU-145 prostate) was 12.1 µM. For the same molecule, the TGI (DU-145 prostate) was 25.8 µM, the GI50 (CCRF-CEM leukemia) was 0.215 µM and the TGI (CCRF-CEM leukemia) was 0.62 µM. For the same molecule, the GI50 (A498 renal) was 19.8 µM, the TGI (A498 renal) was 63.9 µM and the GI50 (SK-MEL-2 melanoma) was 6.73 µM. For the same molecule, the TGI (SK-MEL-2 melanoma) was 17.3 µM, the GI50 (SNB-75 CNS) was 0.811 µM and the TGI (SNB-75 CNS) was greater than 46.9 µM. The GI50 (HOP-62 NSCLC) was 23.5 µM, the TGI (HOP-62 NSCLC) was greater than 59.1 µM and the GI50 (SNB-19 CNS) was 30 µM. For the same molecule, the TGI (SNB-19 CNS) was greater than 100 µM, the GI50 (786-0 renal) was 19.8 µM and the TGI (786-0 renal) was 34.4 µM. The GI50 (LOX IMVI melanoma) was 3.56 µM, the TGI (LOX IMVI melanoma) was 15.6 µM and the GI50 (HS 578T breast) was 5.5 µM. It also gave a TGI (HS 578T breast) of 30.7 µM, a GI50 (K-562 leukemia) of 0.313 µM and a TGI (K-562 leukemia) of 1.2 µM. It also gave a GI50 (SR leukemia) of 0.0506 µM, a TGI (SR leukemia) of 0.616 µM and a GI50 (ACHN renal) of 1.84 µM. For the same molecule, the TGI (ACHN renal) was 5.69 µM, the GI50 (TK-10 renal) was 12.4 µM and the TGI (TK-10 renal) was 24.8 µM. The GI50 (KM12 colon) was 7.36 µM, the TGI (KM12 colon) was 21.5 µM and the GI50 (HCC-2998 colon) was 21.5 µM. It also gave a TGI (HCC-2998 colon) of 45.7 µM, a GI50 (IGROV1 ovarian) of 1.06 µM and a TGI (IGROV1 ovarian) of 5 µM. It also gave a GI50 (PC-3 prostate) of 1.96 µM, a TGI (PC-3 prostate) of 6.85 µM and a GI50 (SK-MEL-5 melanoma) of 0.723 µM. For the same molecule, the TGI (SK-MEL-5 melanoma) was 20.1 µM, the GI50 (EKVX NSCLC) was 4.5 µM and the TGI (EKVX NSCLC) was 16.6 µM. It also gave a GI50 (NCI-H460 lung) of 16.7 µM, a TGI (NCI-H460 lung) of 42.9 µM and a GI50 (MDA-MB-231 breast) of 1.36 µM. It also gave a TGI (MDA-MB-231 breast) of 3.5 µM, a GI50 (SF-295 CNS) of 14.7 µM and a TGI (SF-295 CNS) of 42.2 µM. For the same molecule, the GI50 (OVCAR-3 ovarian) was 1.17 µM, the TGI (OVCAR-3 ovarian) was 2.39 µM and the GI50 (SF-539 CNS) was 5.74 µM. For the same molecule, the TGI (SF-539 CNS) was 22.7 µM, the GI50 (A549 NSCLC) was 32.6 µM and the TGI (A549 NSCLC) was greater than 82.8 µM. It also gave a GI50 (MOLT-4 leukemia) of 0.228 µM, a TGI (MOLT-4 leukemia) of 0.611 µM and a GI50 (HT29 colon) of 23.7 µM. It also gave a TGI (HT29 colon) of 53.7 µM, a GI50 (RXF 393 renal) of 5.06 µM and a TGI (RXF 393 renal) of 16.3 µM. The GI50 (UO-31 renal) was 0.627 µM, the TGI (UO-31 renal) was 4.18 µM and the GI50 (UACC-257 melanoma) was 13.3 µM. The TGI (UACC-257 melanoma) was 26.7 µM, the GI50 (NCI-H522 lung) was 1.6 µM and the TGI (NCI-H522 lung) was 6.38 µM. It also gave a GI50 (SK-OV-3 ovarian) of 26.1 µM, a TGI (SK-OV-3 ovarian) greater than 81.2 µM and a GI50 (BT-549 breast) of 1.33 µM. The TGI (BT-549 breast) was 21.3 µM, the GI50 (OVCAR-4 ovarian) was 1.57 µM and the TGI (OVCAR-4 ovarian) was 3.05 µM. For the same molecule, the GI50 (HCT-116 colon) was 1.42 µM and the TGI (HCT-116 colon) was 2.89 µM.
